Laboratory results taken from patent US20080070960A1, “Novel 3-Aryl-1,2-Benzisoxazole Derivatives and Use Thereof as Medicinal Products Against Cancer” (AVENTIS PHARMA S.A., priority 2005, published 2008).

Each molecule was assayed against Hsp82 (Saccharomyces cerevisiae, UniProt P02829) (assay: Hsp82 ATPase activity inhibition (malachite green inorganic phosphate method, or PK/LDH coupled method)). Conditions: not given.
Format: biochemical
Description: The inorganic phosphate released during the hydrolysis of ATP by the ATPase activity of Hsp82 is quantified by the malachite green method. In the presence of this reagent, formation of the inorganic phosphate-molybdate-malachite green complex occurs, which complex absorbs at a wavelength of 620 nm.
The products to be evaluated are incubated in a reaction volume of 30 μl, in the presence of 1 μM Hsp82 and of 250 μM of substrate (ATP) in a buffer composed of 50 mM Hepes-NaOH (pH 7.5), 1 mM DTT, 5 mM MgCl2 and 50 mM KCl at 37° C. for 60 min. In parallel, a range of inorganic phosphate of between 1 and 40 μM is prepared in the same buffer. The ATPase activity is subsequently visualized by the addition of 60 μl of the biomol green reagent (Tebu). After incubation at ambient temperature for 20 min, the absorbance of the various wells is measured using a microplate reader at 620 nm. The concentration of inorganic phosphate of each sample is then calculated from the standard curve. The ATPase activity of Hsp82 is expressed as concentration of inorganic phosphate produced in 60 min. The effect of the various products tested is expressed as percentage inhibition of the ATPase activity.
The formation of ADP due to the ATPase activity of Hsp82 was used to develop another method for evaluating the enzymatic activity of this enzyme by application of an enzymatic coupling system involving pyruvate kinase (PK) and lactate dehydrogensase (LDH). In this kinetic-type spectrophotometric method, the PK catalyses the formation of ATP and of pyruvate from phosphoenol pyruvate (PEP) and from the ADP produced by Hsp82. The pyruvate formed, which is a substrate for LDH, is subsequently converted into lactate in the presence of NADH. In this case, the decrease in NADH concentration, measured by the decrease in absorbance at the wavelength of 340 nm, is proportional to the concentration of ADP produced by Hsp82.
The products tested are incubated in a reaction volume of 100 μl of buffer composed of 100 mM Hepes-NaOH (pH 7.5), 5 mM MgCl2, 1 mM DTT, 150 mM KCl, 0.3 mM NADH, 2.5 mM PEP and 250 μM ATP. This mixture is preincubated at 37° C. for 30 min before the addition of 3.77 units of LDH and 3.77 units of PK. The reaction is initiated by the addition of the product to be evaluated, at varying concentrations, and of Hsp82, at a concentration of 1 μM. The enzymatic activity of Hsp82 is then measured, continuously, in a microplate reader, at 37° C., at the wavelength of 340 nm. The initial rate of the reaction is obtained by measuring the slope of the tangent at the origin of the curve recorded. The enzymatic activity is expressed in μM of ADP formed per minute. The effect of the various products tested is expressed as percentage inhibition of the ATPase activity.

Chain of Hsp82 (P02829 whole entry): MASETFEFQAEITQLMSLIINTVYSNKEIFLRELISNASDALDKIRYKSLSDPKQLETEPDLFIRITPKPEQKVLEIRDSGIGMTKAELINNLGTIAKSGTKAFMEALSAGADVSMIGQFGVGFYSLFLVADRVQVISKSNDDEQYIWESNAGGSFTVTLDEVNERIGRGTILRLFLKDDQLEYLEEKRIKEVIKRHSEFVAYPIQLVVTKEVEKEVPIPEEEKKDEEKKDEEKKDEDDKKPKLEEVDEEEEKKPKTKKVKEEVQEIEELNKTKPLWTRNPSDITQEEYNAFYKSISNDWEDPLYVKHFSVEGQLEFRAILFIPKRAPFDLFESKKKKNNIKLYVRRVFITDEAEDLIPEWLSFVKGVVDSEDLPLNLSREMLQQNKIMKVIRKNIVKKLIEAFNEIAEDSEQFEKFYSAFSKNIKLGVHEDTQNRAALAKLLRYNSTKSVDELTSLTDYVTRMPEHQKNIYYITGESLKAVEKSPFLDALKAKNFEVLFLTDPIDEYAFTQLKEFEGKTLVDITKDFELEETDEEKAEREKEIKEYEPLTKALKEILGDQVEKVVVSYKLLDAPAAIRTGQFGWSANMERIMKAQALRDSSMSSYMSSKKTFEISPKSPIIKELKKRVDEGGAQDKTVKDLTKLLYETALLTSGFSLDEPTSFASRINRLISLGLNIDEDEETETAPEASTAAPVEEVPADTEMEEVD

Row | Compound | IC50 [µM]
1 | Oc1ccc(-c2noc3ccccc23)c(O)c1 [Example 1, 4-(1,2-Benzisoxazol-3-yl)benzene-1,3-diol] | 1 to 10

Same assay, conditions: inhibition of ATPase activity of Hsp82; 1 μM Hsp82, 250 μM ATP, 37° C.; read-out: IC50

Row | IC50 [µM] | Compound
2 | 1 to 10 | Oc1cc(O)c(-c2noc3ccccc23)cc1/C=N/c1ccc(Cl)c(Cl)c1 [Example 12, 4-(1,2-benzisoxazol-3-yl)-6-(3,4-dichlorophenyl)iminomethylbenzene-1,3-diol]
3 | 1 to 10 | Oc1cc(O)c(-c2noc3ccccc23)cc1CNc1ccccc1 [Example 8, 4-(1,2-Benzisoxazol-3-yl)-6-(phenylamino)methylbenzene-1,3-diol]
4 | 10 to 100 | O=C(Cc1ccccc1)c1cc(-c2noc3ccccc23)c(O)cc1O [Example 5]
5 | 10 to 100 | COc1cc(O)c(-c2noc3ccccc23)cc1CNc1ccc(C)c(C)c1 [Example 10, 2-(1,2-benzisoxazol-3-yl)-4-(3,4-dimethylphenylamino)methyl-5-methoxyphenol]
6 | 10 to 100 | COC(=O)c1cc(-c2noc3ccccc23)c(O)cc1O [Example 3, 5-(1,2-Benzisoxazol-3-yl)-2,4-dihydroxybenzenecarboxylic acid methyl ester]
7 | 1 to 10 | Oc1cc(O)c(-c2noc3ccccc23)cc1Br [Example 2, 4-(1,2-Benzisoxazol-3-yl)-6-bromobenzene-1,3-diol]
8 | 1 to 10 | Oc1cc(O)c(-c2noc3ccccc23)cc1CNc1ccc(Cl)c(Cl)c1 [Example 11, 4-(1,2-Benzisoxazol-3-yl)-6-(3,4-dichlorophenylamino)methylbenzene-1,3-diol]
9 | 1 to 10 | CCc1cc(-c2noc3ccccc23)c(O)cc1O [Example 6, 4-(1,2-Benzisoxazol-3-yl)-6-ethylbenzene-1,3-diol]
10 | < 1 | Cc1ccc(NCc2cc(-c3noc4ccccc34)c(O)cc2O)cc1C [Example 9, 4-(1,2-Benzisoxazol-3-yl)-6-(3,4-dimethylphenylamino)methylbenzene-1,3-diol]
11 | 10 to 100 | O=C(NCc1ccccc1)c1cc(-c2noc3ccccc23)c(O)cc1O [Example 4, N1-Phenylmethyl-5-(1,2-benzisoxazol-3-yl)-2,4-dihydroxybenzenecarboxamide]
12 | 1 to 10 | Oc1cc(O)c(-c2noc3ccccc23)cc1CCc1ccccc1 [Example 7, 4-(1,2-Benzisoxazol-3-yl)-6-(2-phenylethyl)benzene-1,3-diol]
